Test results as given in patent US8754104B2, “Crystalline salts of quinoline compounds and methods for preparing them” (Active Biotech AB, priority 2004, dated 2014).
Structures can show the parent of a compound that is named as a salt. Where two headings read alike, the source gives them in different places.

Experiments:
[1] = Solubility in water at room temperature; type: physicochemical; conditions: for solubility: water
[2] = Investigation of the degradation rate (reactivity index) in solution; type: physicochemical; conditions: 1-% 0.01M hydrochloric acid in n-propanol, 45 to 60° C., HPLC; relative to Roquinimex defined to 1.0; index 2.0 = 26% per hour
Protocol: The degradation rate, hereinafter called the reactivity index, of compound of formula (I) was determined in solution. Roquinimex (Merck Index 12th Ed., No. 8418; Linomide®, LS2616, N-methyl-N-phenyl-1,2-dihydro-4-hydroxy-1-methyl-2-oxo-3-quinolinecarboxamide) was selected as a reference compound with the reactivity index defined to 1.0. A medium of 1-% 0.01M hydrochloric acid in n-propanol was selected. The reaction temperature was in the range of 45 to 60° C. The 3-quinolinecarboxamide derivative of formula (I) was added to the n-propanol solution. The reaction transfers the compound to an n-propylester. The reaction was stopped after 0, 2 and 4 hours, and analysis was carried out by means of HPLC with UV detection. The disappearance of the 3-quinolinecarboxamide derivative was used for evaluation of the reactivity index, but as an alternative also the formation of the n-propylester may be used. A reactivity index of […] at 60° C., a reactivity index of 2.0 corresponds to a degradation rate of 26% per hour etc.

[3] = type: physicochemical; conditions: for Degradation (percentage increase of related substances): 6 months
Protocol: Upon storage without any special precautions being taken, some 3-quinolinecarboxamide derivatives of formula (I) are degraded at an unacceptable rate. At storage during accelerated conditions, that is 40° C. and a relative humidity of 75%, the degradation of some 3-quinoline-carboxamide derivatives can exceed 2% in a period of 6 months (Table 1).
This is evident from a comparison of N-ethyl-N-phenyl-5-chloro-1,2-dihydro-4-hydroxy-1-methyl-2-oxo-3-quinolinecarboxamide (hereinafter called compound A) with the sodium salt of N-ethyl-N-phenyl-5-chloro-1,2-dihydro-4-hydroxy-1-methyl-2-oxo-3-quinolinecarboxamide (hereinafter called compound A sodium). While at 40° C. and a relative humidity of 75% less than 0.01% of compound A sodium in solid state is converted to degradation products in a period of 24 months, 0.31% of compound A is degraded during a 6-month period. Another example of a 3-quinolinecarboxamide derivative susceptible to degradation is N-ethyl-N-phenyl-5-ethyl-1,2-dihydro-4-hydroxy-1-methyl-2-oxo-3-quinolinecarboxamide (hereinafter called compound B), see Table 1.

[4] = Compatibility study, binary mixtures (1:1) of excipient and test substance; type: physicochemical
Source text: Generally, any tendency of instability is exacerbated when a compound of formula (II) is formulated with various excipients. It is clear that the salt form is preferred as drug substance in any binary mixtures of said compound.

[5] = 1:1 mixture with Colloidal silica (Aerosil 200), +40° C./75% RH, 6 months
[6] = 1:1 mixture with Maize Starch, +40° C./75% RH, 6 months
[7] = 1:1 mixture with Mannitol (Pearlitol 200SD), +40° C./75% RH, 6 months
[8] = 1:1 mixture with Microcrystalline Cellulose (Avicel PH-, +40° C./75% RH, 6 months)

SMILES: CCN(C(=O)c1c(O)c2c(Cl)cccc2n(C)c1=O)c1ccccc1 [Example 3, N-Ethyl-N-phenyl-5-chloro-1,2-dihydro-4-hydroxy-1-methyl-2-oxo-3-quinolinecarboxamide calcium salt]
- Solubility in water (in words) [1]: sparingly soluble in water
- solubility ([1]; room temperature): ~1000 µg/mL

SMILES: CCN(C(=O)c1c(O)c2c(SC)cccc2n(C)c1=O)c1ccccc1 [Compound F, N-ethyl-N-phenyl-5-methylthio-1,2-dihydro-4-hydroxy-1-methyl-2-oxo-3-quinolinecarboxamide]
- Reactivity index [2]: >10

SMILES: CCN(C(=O)c1c(O)c2c(Cl)cccc2n(C)c1=O)c1ccccc1.[Na] [Compound A sodium, N-Ethyl-N-phenyl-5-chloro-1,2-dihydro-4-hydroxy-1-methyl-2-oxo-3-quinolinecarboxamide sodium salt]
- solubility ([1]; room temperature): 138000 µg/mL
- “Shelf-life” (storage time without degradation exceeding 0.5%) [3]: >6 months
- Degradation (percentage increase of related substances) [3]: <0.01%^3
- Converted to degradation products ([3]; 24 months): less than 0.01%
- Degradation (percentage increase of related substances) [4, 5]: 1.5%
- Degradation (percentage increase of related substances) [4, 6]: 0.05%
- Degradation (percentage increase of related substances) [4, 7]: 0.05%
- Degradation (percentage increase of related substances) [4, 8]: 0.31%

SMILES: CCc1cccc2c1c(O)c(C(=O)N(CC)c1ccccc1)c(=O)n2C [Example 7, N-Ethyl-N-phenyl-5-ethyl-1,2-dihydro-4-hydroxy-1-methyl-2-oxo-3-quinolinecarboxamide zinc salt]
- solubility ([1]; room temperature): 300 µg/mL

SMILES: CN(C(=O)c1c(O)c2c(Cl)cccc2n(C)c1=O)c1ccc(F)cc1F [Compound C, N-methyl-N-(2,4-difluorophenyl)-5-chloro-1,2-dihydro-4-hydroxy-1-methyl-2-oxo-3-quinolinecarboxamide]
- Reactivity index [2]: 2.6

SMILES: CCc1cccc2c1c(O)c(C(=O)N(CC)c1ccccc1)c(=O)n2C.[Li] [Example 5, N-Ethyl-N-phenyl-5-ethyl-1,2-dihydro-4-hydroxy-1-methyl-2-oxo-3-quinolinecarboxamide lithium salt]
- solubility ([1]; room temperature): 18000 µg/mL

SMILES: CCN(C(=O)c1c(O)c2c3c(ccc2n(C)c1=O)OCO3)c1ccccc1 [Compound E, N-ethyl-N-phenyl-5,6-methylenedioxy-1,2-dihydro-4-hydroxy-1-methyl-2-oxo-3-quinolinecarboxamide]
- Reactivity index [2]: 2.9

SMILES: CN(C(=O)c1c(O)c2ccccc2n(C)c1=O)c1ccccc1 [Roquinimex, N-methyl-N-phenyl-1,2-dihydro-4-hydroxy-1-methyl-2-oxo-3-quinolinecarboxamide, reference compound]
- Reactivity index [2]: 1.0

SMILES: CCN(C(=O)c1c(O)c2c(Cl)cccc2n(C)c1=O)c1ccccc1 [Compound A, N-ethyl-N-phenyl-5-chloro-1,2-dihydro-4-hydroxy-1-methyl-2-oxo-3-quinolinecarboxamide]
- Reactivity index [2]: 3.1
- “Shelf-life” (storage time without degradation exceeding 0.5%) [3]: >6 months
- Degradation (percentage increase of related substances) [3]: 0.31%
- Degradation (percentage increase of related substances) [4, 5]: 20%
- Degradation (percentage increase of related substances) [4, 6]: 0.41%
- Degradation (percentage increase of related substances) [4, 7]: 0.45%
- Degradation (percentage increase of related substances) [4, 8]: 1.1%

SMILES: Cc1cccc2c1c(O)c(C(=O)N(C)c1ccc(C(F)(F)F)cc1)c(=O)n2C [Compound D, N-methyl-N-(4-trifluorophenyl)-1,2-dihydro-1,5-dimethyl-4-hydroxy-1-methyl-2-oxo-3-quinolinecarboxamide]
- Reactivity index [2]: >10

SMILES: CCc1cccc2c1c(O)c(C(=O)N(CC)c1ccccc1)c(=O)n2C [Compound B, N-ethyl-N-phenyl-5-ethyl-1,2-dihydro-4-hydroxy-1-methyl-2-oxo-3-quinolinecarboxamide]
- Reactivity index [2]: 4.6
- “Shelf-life” (storage time without degradation exceeding 0.5%) [3]: <1 months
- Degradation (percentage increase of related substances) [3]: 2.0%

SMILES: CCc1cccc2c1c(O)c(C(=O)N(CC)c1ccccc1)c(=O)n2C.[Ca] [Example 6A, Crystalline N-Ethyl-N-phenyl-5-ethyl-1,2-dihydro-4-hydroxy-2-methyl-2-oxo-3-quinolinecarboxainide calcium salt]
- Solubility in water ([1]; room temperature): 0.3 mg/mL
